Literature values in patent publication US10302625B2, “Peripheral measure of central brain inflammation, markers therefor and uses thereof” (CENTRE FOR ADDICTION AND MENTAL HEALTH, priority 2015, dated 2019).

Biological target: T1, TSPO (Sus scrofa, UniProt Q6UN27)
T1 sequence (Q6UN27 1-169): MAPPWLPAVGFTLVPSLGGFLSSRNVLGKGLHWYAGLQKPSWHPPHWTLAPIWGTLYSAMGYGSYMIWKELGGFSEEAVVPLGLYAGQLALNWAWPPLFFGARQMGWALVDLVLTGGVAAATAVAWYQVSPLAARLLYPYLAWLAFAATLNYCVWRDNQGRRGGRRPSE
Details: literature ref 19

- affinity for TSPO: high, selective affinity for TSPO
SMILES: CC(=O)N(Cc1ccccc1OCC[18F])c1cnccc1Oc1ccccc1 [[18F]FEPPA]
